Test results reported in patent publication US5597848A, “Benzenesulfonamide derivatives and use thereof” (Hokuriku Seiyaku Co., Ltd., priority 1992, dated 1997).

Assays:
[1] = target: T1, thromboxane A2 receptor (Cavia porcellus, UniProt A0A286Y4I8); assay: Thromboxane A2 antagonistic effect: inhibition of U-46619-induced platelet aggregation in guinea-pig platelet-rich plasma; assay type: cell-based, guinea-pigs; conditions: guinea-pig PRP, U-46619 2 μg/ml, 2 min at 37° C.; read-out: IC50 (50% inhibition against platelet aggregation)
T1 construct: platelet-rich plasma; endogenous in cells; host or cells: guinea-pig platelets in platelet-rich plasma
T1 sequence (A0A286Y4I8 1-347): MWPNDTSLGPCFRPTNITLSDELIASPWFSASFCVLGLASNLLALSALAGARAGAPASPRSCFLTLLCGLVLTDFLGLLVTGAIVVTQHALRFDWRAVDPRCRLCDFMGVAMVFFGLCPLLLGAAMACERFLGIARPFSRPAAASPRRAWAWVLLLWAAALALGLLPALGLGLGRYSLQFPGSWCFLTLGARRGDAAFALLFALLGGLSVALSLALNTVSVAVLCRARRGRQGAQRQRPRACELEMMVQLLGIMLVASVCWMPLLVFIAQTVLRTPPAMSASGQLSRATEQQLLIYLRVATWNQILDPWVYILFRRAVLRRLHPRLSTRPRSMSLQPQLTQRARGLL
Method: Blood was collected from the abdominal aorta of guinea-pigs (about 400 g wt.) into 1/10 volume of 3.8% sodium citrate, and then platelet-rich plasma (PRP: 6×10^5 cells/μl) was obtained by centrifugation. A cuvette was filled with PRP 190 μl and set in an aggregometer (Hema Tracer I; Niko Bioscience). Incubation was carried out for 2 min. at 37° C. after the addition of 1 μl of dimethyl sulfoxide solution of test compounds. To the PRP, 10 μl of U-46619 (Cayman), a thromboxane A2 /prostaglandin H2 receptor agonist and potent platelet aggregation inducer, was added at the final concentration of 2 μg/ml, and platelet aggregation was measured by an aggregometer.

[2] = target: T2, thromboxane A2 synthetase (Homo sapiens, UniProt P24557); assay: Inhibitory effect on thromboxane A2 synthetase (human platelet membrane fraction, thromboxane B2 RIA); assay type: biochemical; conditions: 3 min at 25° C., read-out: IC50 (50% inhibition of the enzyme activity)
T2 construct: human platelet membrane fraction (RAN) as a source of thromboxane A2 synthetase; purchased RAN; host or cells: human platelet membrane fraction
T2 sequence (P24557 1-533): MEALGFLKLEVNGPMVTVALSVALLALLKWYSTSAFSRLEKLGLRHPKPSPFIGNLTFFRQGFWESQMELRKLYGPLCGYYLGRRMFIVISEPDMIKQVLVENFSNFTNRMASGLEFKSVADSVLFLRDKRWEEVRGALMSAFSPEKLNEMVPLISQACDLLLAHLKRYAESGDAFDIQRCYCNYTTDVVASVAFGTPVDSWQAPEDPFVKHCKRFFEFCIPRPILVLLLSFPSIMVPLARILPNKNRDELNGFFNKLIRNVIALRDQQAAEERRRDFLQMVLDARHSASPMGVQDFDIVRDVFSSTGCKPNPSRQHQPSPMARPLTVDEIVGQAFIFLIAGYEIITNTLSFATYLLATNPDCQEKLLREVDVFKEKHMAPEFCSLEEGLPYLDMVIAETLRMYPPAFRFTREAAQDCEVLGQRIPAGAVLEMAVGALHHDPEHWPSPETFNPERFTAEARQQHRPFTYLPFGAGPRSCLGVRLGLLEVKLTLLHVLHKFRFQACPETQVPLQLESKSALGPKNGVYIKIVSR
Method: 100 μg/ml (285 μl) of the commercially available human platelet membrane fraction (RAN) as a source of thromboxane A2 synthetase, dimethyl sulfoxide solution of test compounds (10 μl) and 100 μg/ml (5 μl) of prostaglandin H2 (Cayman) were mixed and reaction was carried out for 3 min at 25° C. Amount of thromboxane B2, a stable metabolite derived from thromboxane A2 produced, was measured by RIA method (TXB2 quantification kit; NEN).

[3] = target: T3, leukotriene D4 (Cavia porcellus, UniProt Q2NNR5); assay: Leukotriene D4 antagonistic effect in isolated trachea (Schild method); parameters: species or system male Hartley guinea-pigs
T3 construct: tracheas were isolated from male Hartley guinea-pigs; from tissue; host or cells: isolated trachea of male Hartley guinea-pigs
T3 sequence (Q2NNR5 1-340): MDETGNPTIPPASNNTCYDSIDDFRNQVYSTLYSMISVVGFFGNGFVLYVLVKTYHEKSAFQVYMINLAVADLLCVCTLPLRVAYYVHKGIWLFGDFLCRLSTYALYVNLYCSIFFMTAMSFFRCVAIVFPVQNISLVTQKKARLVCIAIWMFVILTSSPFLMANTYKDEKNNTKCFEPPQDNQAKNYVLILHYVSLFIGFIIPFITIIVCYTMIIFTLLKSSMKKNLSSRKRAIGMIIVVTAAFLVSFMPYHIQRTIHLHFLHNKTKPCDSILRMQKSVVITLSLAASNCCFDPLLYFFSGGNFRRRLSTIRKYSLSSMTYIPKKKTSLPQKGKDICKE
Method: According to an ordinary method, tracheas were isolated from male Hartley guinea-pigs, and ring specimens of approximately […] length were prepared. These specimens were suspended isotonically in organ baths that contained Krebs solution at 37° C. under a resting tension of 0.5 g. After repeated contractions with acetylcholine (1×10^-6 M; Ovisot for injection, Daiichi Seiyaku), and the first concentration-response curves was obtained by cummulative applications of leukotriene D4 (ULTRA FINE) into the organ baths. After treatments with test compounds at adequate concentrations for 30 min, the second concentration-response curves were obtained in the same manner as first applications. pKB values were calculated using these two concentration-response curves according to the method of Schild [Pharmacological Review, Vol. 9, 242 (1957)]. Indomethacin (3×10^-6 M; Sigma) was added beforehand to the organ bath to eliminate possible affections by thromboxane A2 and prostaglandin produced by stimulus of leukotriene D4 [Japan J. Pharmacol., Vol. 60, 227 (1992)].

[4] = system: broncho-constriction induced by leukotriene D4; assay: Inhibitory effect on broncho-constriction induced by leukotriene D4 (Konzett-Roessler method, oral); assay type: in vivo, male Hartley guinea-pig; conditions: for inhibition in vivo at 30 mg/kg: Cavia porcellus, po, 30 mg/kg orally, leukotriene D4 1 μg/kg after 2 hr, indomethacin and propranolol pretreatment, read-out: Inhibition rate
Method: Airway resistance was evaluated according to the method of Konzett-Roessler[Naunyn-Schmiedberg's Arch. Exp. Path. Pharmak., Vol. 195, 71 (1940)]. After male Hartley guinea-pig fasted beforehand for 24 hr were anesthetized with urethane, overflowed air volume was measured under artificial ventilation as an index of broncho-constriction. 30 mg/kg (5 ml/kg) of test compounds suspended in 5% gum Arabic were administered orally to […]. Leukotriene D4 (1 μg/kg; ULTRA FINE) was administered through the cervical vein after 2 hr, and then values were measured at 2 min after the time when responses became maximum. Inhibitory rates compared to the control group were calculated based on the response rate normalized by the overflowed volume at complete closure as 100% broncho-constriction state. Indomethacin (2 mg/kg, i.v.) and propranolol (1 mg/kg, i.v.) were administered at 10 min and 5 min before the administration of leukotriene D4, respectively.

[5] = system: broncho-constriction induced by U-46619; assay: Inhibitory effect on broncho-constriction induced by U-46619 (Konzett-Roessler method, oral); assay type: in vivo, Male hartley guinea-pigs; conditions: 0.3 mg/kg orally, 2 hrs before U-46619 4 μg/kg
Method: Airway resistance was evaluated according to the method of Konzett-Roessler[Naunyn-Schmiedberg's Arch. Exp. Path. Pharmak., Vol. 195, 71 (1940)]. Male hartley guinea-pigs (about 400 g wt.) were anesthetized with urethane (1.5 g/kg, i.p.) and ventilated by an artificial respirator (Model 683; Harvard). At that time, overflowed air volume above the pressure of about 12 cm H2 O was measured by using a sensor (Model 7020; Ugo basile) and the value was used as an index of broncho-constriction. 0.3 mg/kg (5 ml/kg) of test compounds suspended in 5% gum Arabic was administered orally to Guinea-pigs fasted beforehand for 24 hr. After 2 hrs, U-46619 (4 μg/kg; Cayman) was administered through the cervical vein, and then maximal response was measured. Inhibitory rates compared to the reference group were calculated based on the response rate normalized by the complete closure as 100%.

[6] = isolated trachea, 30 min treatment, indomethacin 3×10^-6 M, Krebs 37° C.

| Structure (SMILES) | IC50 [1] | IC50 [2] | Kb [3, 6] | pKB [3, 6] | leukotriene D4 antagonistic effect (in words) [3] | inhibition in vivo at 30 mg/kg [4] | Inhibition rate [5] | inhibitory effect on broncho-constriction induced by leukotriene D4 (in words) ([4]; guinea pig, in vivo) |
| --- | --- | --- | --- | --- | --- | --- | --- | --- |
| O=C(O)CCCc1ccc(C(Cc2ccccc2)NS(=O)(=O)c2ccc(Cl)cc2)cc1 (stereo not shown) [Example 62, 4-[4-[1-(4-Chlorophenylsulfonylamino)-2-phenylethyl]phenyl]butyric Acid] | 50 nM | 4000 nM |  |  |  |  |  |  |
| CC(NS(=O)(=O)c1ccc(Cl)cc1)c1ccc(CCCC(=O)O)cc1 (stereo not shown) [Example 63, 4-[4-[1-(4-Chlorophenylsulfonylamino)ethyl]phenyl]butyric Acid] |  | 2000 nM |  |  |  |  |  |  |
| CC(C)C(NS(=O)(=O)c1ccc(Cl)cc1)c1ccc(CCCC(=O)O)cc1 (stereo not shown) [Example 69, 4-[4-[1-(4-Chlorophenylsulfonylamino)-2-methylpropyl]phenyl]butyric Acid] | 200 nM | 2000 nM |  |  |  |  |  |  |
| O=C(O)CCCc1ccc(C(NS(=O)(=O)c2ccc(Cl)cc2)C2CCCC2)cc1 (stereo not shown) [Example 73, 4-[4-[(4-Chlorophenylsulfonylamino)cyclopentylmethyl]phenyl]butyric Acid] | 250 nM | 1600 nM |  |  |  |  |  |  |

Now from value to compound, other results behind:

| IC50 [1] | IC50 [2] | Kb [3, 6] | pKB [3, 6] | leukotriene D4 antagonistic effect (in words) [3] | Structure (SMILES) | inhibition in vivo at 30 mg/kg [4] | Inhibition rate [5] | inhibitory effect on broncho-constriction induced by leukotriene D4 (in words) ([4]; guinea pig, in vivo) |
| --- | --- | --- | --- | --- | --- | --- | --- | --- |
| 320 nM | 3200 nM | 501 nM |  |  | O=C(O)CCCc1ccc(C(NS(=O)(=O)c2ccc(Cl)cc2)C2CCCCC2)cc1 (stereo not shown) [Example 74, 4-[4-[(4-Chlorophenylsulfonylamino)cyclohexylmethyl]phenyl]butyric Acid] |  |  |  |
| 630 nM |  | 1000 nM |  |  | O=C(O)CCCc1ccc(C(Cc2ccc(Cl)cc2)NS(=O)(=O)c2ccc(Cl)cc2)cc1 (stereo not shown) [Example 96, 4-[4-[2-(4-Chlorophenyl)-1-(4-chlorophenylsulfonylamino)ethyl]phenyl]butyric Acid] | 43% | 89% |  |
| 320 nM |  |  | 5.9 |  | Cc1ccc(CC(NS(=O)(=O)c2ccc(Cl)cc2)c2ccc(CCCC(=O)O)cc2)cc1 (stereo not shown) [Example 97, 4-[4-[1-(4-Chlorophenylsulfonylamino)-2-(p-tolyl)ethyl]phenyl]butyric Acid] | 56% | 88% |  |
| 320 nM |  | 398 nM |  |  | O=C(O)CCCc1ccc(C(CCc2ccccc2)NS(=O)(=O)c2ccc(Cl)cc2)cc1 (stereo not shown) [Example 98, 4-[4-[1-(4-Chlorophenylsulfonylamino)-3-phenylpropyl]phenyl]butyric Acid] | 57% | 84% |  |
|  | 40000 nM | > 100000 nM |  | inactive | O=C(O)Cc1ccc(CCNS(=O)(=O)c2ccc(Cl)cc2)cc1 [Reference compound, reference compound] | ≤ 0% | 18% | no inhibitory effect |
